Source: patent publication US4782074A (priority 1987, dated 1988)

Experiments:
Type in all cases: in vivo
[1] = system: Alternaria solani conidia; assay: Tomato Early Blight control (Example D); settings: 288 h, tomato seedlings, Bonny Best, inoculated 1 day after spray, relative to untreated check plants, read-out: % Control TEB
Method: Compounds of the invention were tested for the control of the Tomato Early Blight organism Alternaria solani conidia. Tomato (variety Bonny Best) seedlings of 6- to 7-weeks old were used. The tomato plants were sprayed with a 250-ppm solution of the test compound in an acetone-and-water solution containing a small amount of a nonionic emulsifier. The sprayed plants were inoculated 1 day later with the organism, placed in the environmental chamber and incubated at 66° F. to 68° F. and 100% relative humidity for 24 hours. Following the incubation, the plants were maintained in a greenhouse for about 12 days. Percent disease control was based on the percent disease development on untreated check plants.

[2] = system: Uromyces phaseoli tipica; assay: Leaf Rust / Bean Rust control (Example F); settings: 336 h, pinto bean plants, rated after about 14 days, relative to untreated check plants, read-out: % Control BR
Method: The Leaf Rust test was made using pinto beans. The pathogen was Uromyces phaseoli tipica. The pinto bean plants were sprayed with a 250-ppm solution of the test compound in an acetone-water mixture containing a nonionic emulsifier. The treated plants were inoculated thereafter with the pathogen and then incubated in an environmental chamber for approximately 20 hours at 100% relative humidity and a temperature of 68° F. to 70° F. The plants were then removed from the chamber, allowed to dry, and then maintained in a greenhouse at a 60% to 80% relative humidity. The rate of infection on the leaves was made after about 14 days. The percent disease control provided by a given test compound was based on the percent disease reduction relative to untreated check plants.

[3] = system: Erysiphe polygoni; assay: Bean Powdery Mildew control (Example A); settings: 240 h, seedling bean plants, inoculated 1 day after spray, 10 days, relative to untreated check plants, read-out: % Control BPM
Method: The compounds of the invention were tested for the control of the Bean Powdery Mildew organism Erysiphe polygoni. Seedling bean plants were sprayed with a 250-ppm solution of the test compound in acetone, water and a nonionic emusifier. The sprayed plants were then inoculated 1 day later with the organism. The plants were maintained for 10 days at temperatures of 68° F. at night with daytime temperatures of 72° F. to 80° F.; relative humidity was maintained at 40% to 60%. The percent disease control provided by a given test compound was based on the percent disease reduction relative to the untreated check plants.

[4] = system: Phytophthora infestans; assay: whole plant or invertebrate; settings: in Solanum lycopersicum, 168 h, read-out: % Control TLB
[5] = system: Septoria apii; assay: whole plant or invertebrate; settings: 336 h, read-out: % Control CLB
[6] = system: Plasmopara viticola; assay: Grape Downy Mildew control (Example E); settings: detached grape leaves, cultivar Emperor, relative to untreated check plants, read-out: % Control GDM
Method: The compounds of the invention were tested for the control of the Grape Downy Mildew organism Plasmopara viticola. Detached leaves, between 70 mm and 85 mm in diameter, 7-week-old Vitis vinifera cultivar Emperor grape seedlings were used as hosts. The leaves were sprayed with a 250-ppm solution of the test compound in acetone. The sprayed leaves were dried, inoculated with a spore suspension of the organism, placed in a humid environmental chamber and incubated at 66° F. to 68° F. and about 100% relative humidity. After incubation for 2 days, the plants were then held in a greenhouse 7 to 9 days; then the amount of disease control was determined. The percent disease control provided by a given test compound was based on the percent disease reduction relative to untreated check plants.

[7] = system: Piricularia oryzae; assay: whole plant or invertebrate; settings: Pyricularia oryzae, read-out: % Control RB

SMILES | pest or weed control at 250 ppm [1] [%] | pest or weed control at 250 ppm [2] [%] | pest or weed control at 250 ppm [3] [%] | pest or weed control at 250 ppm [4] [%] | pest or weed control at 250 ppm [5] [%] | pest or weed control at 250 ppm [6] [%] | pest or weed control at 625 ppm [7] [%]
CCCN(CCOc1ccc(C(C)(C)C)cc1)C(=O)c1cccnc1 [Compound 6] | 50 | 0 | 98 | 10 | 0 | 0 | 
CCCN(CCCc1ccc(Cl)cc1Cl)C(=O)c1cnccn1 [Compound 26] | 0 | 3 | 11 | 4 | 10 | 13 | 21
CCCN(CCSc1c(Cl)cccc1Cl)C(=O)c1cccnc1 [Compound 11, N-(n-propyl), N-(3-pyridylcarbonyl) 2-aminoethanethiol 2,6-dichlorophenylthioether] | 60 | 0 | 58 | 0 | 0 | 13 | 29
C=CCN(CCOc1c(Cl)cc(Cl)cc1Cl)C(=O)c1cccnc1 [Compound 32, N-allyl, N-(3-pyridylcarbonyl)ethanolamine 2,4,6-trichlorophenylether] | 0 | 0 | 4 | 0 | 0 | 41 | 0
CCCN(CCCc1ccc(Cl)cc1Cl)C(=O)c1cccnc1 [Compound 27] | 57 | 3 | 82 | 0 | 35 | 0 | 71
CCCN(CCOc1c(Cl)cccc1Cl)C(=O)c1cncnc1 [Compound 13] | 97 | 0 | 81 | 4 | 80 | 10 | 
CCCN(CCOc1ccc(Cl)cc1Cl)C(=O)c1cccnc1 [Compound 8] | 40 | 3 | 50 | 0 | 45 | 0 | 0
CCCN(CCOc1c(Cl)cc(Cl)cc1Cl)C(=O)c1cncnc1 [Compound 2, N-(n-propyl), N-(5-pyrimidylcarbonyl)ethanolamine 2,4,6-trichlorophenylether] | 98 | 0 | 100 | 0 | 93 | 3 | 38
CCCN(CCOc1ccc(Cl)cc1Cl)C(=O)c1cnccn1 [Compound 7] | 0 | 3 | 21 | 0 | 15 | 13 | 0
CCCN(CCOc1c(C)cc(C)cc1C)C(=O)c1cccnc1 [Compound 14] | 67 | 0 | 100 | 0 | 85 | 0 | 64
CCCN(C(=O)c1cnccn1)C(C)COc1c(Cl)cc(Cl)cc1Cl (centres unmarked) [Compound 21, N-(n-propyl), N-(2-pyrazinylcarbonyl)propanol-2-amine 2,4,6-trichlorophenylether] |  | 23 | 71 | 0 | 0 | 67 | 0
CCN(CCOc1c(Cl)cc(Cl)cc1Cl)C(=O)c1cnccn1 [Compound 36] | 0 | 0 | 75 | 0 | 50 | 45 | 0
CCCN(CCOc1c(Cl)cc(Cl)cc1Cl)C(=O)c1cccnc1 [Compound 1, N-(n-propyl), N-(3-pyridylcarbonyl)ethanolamine 2,4,6-trichlorophenylether] | 96 | 0 | 100 | 0 | 46 | 50 | 86
CCCN(CCCc1c(Cl)cccc1Cl)C(=O)c1cccnc1 [Compound 22, N-[3-(2,6-dichlorophenyl)propyl], N-(n-propyl)nicotine amide] | 88 | 0 | 44 | 0 | 38 | 7 | 0
O=C(c1cccnc1)N(CCO)CCOc1c(Cl)cc(Cl)cc1Cl [Compound 30] | 17 | 0 | 33 | 7 | 32 | 54 | 0
CCCN(CCCOc1c(Cl)cc(Cl)cc1Cl)C(=O)c1cccnc1 [Compound 19] | 0 | 0 | 70 | 10 | 38 | 30 | 96
CCCN(CCOc1ccc(C(C)(C)C)cc1)C(=O)c1cnccn1 [Compound 5] | 36 | 0 | 94 | 0 | 17 | 28 | 
CCCN(CCOc1c(C)cc(C)cc1C)C(=O)c1cncnc1 [Compound 16] | 83 | 0 | 50 | 0 | 38 | 7 | 36
CCOCCN(CCOc1c(Cl)cc(Cl)cc1Cl)C(=O)c1cccnc1 [Compound 33] | 52 | 0 | 88 | 0 | 54 | 18 | 0
CCCN(CCOc1c(Cl)cc(Cl)cc1Cl)C(=S)c1cnccn1 [Compound 18] |  | 0 | 54 | 0 | 85 | 43 | 
CCCN(C(=O)c1cccnc1)C(C)COc1c(Cl)cc(Cl)cc1Cl (centres unmarked) [Compound 20, N-(n-propyl), N-(3-pyridylcarbonyl)propanol-2-amine 2,4,6-trichlorophenylether] |  | 23 | 93 | 0 | 0 | 7 | 0
CCCN(Cc1c(Cl)cccc1Cl)C(=O)c1cccnc1 [Compound 29] | 50 | 0 | 48 | 0 | 0 | 27 | 
